For test [1], the target named is T1, wt PKR (Homo sapiens, UniProt P30613). Kind of test: wt PKR cell based assay.
The target in test [2] is T1, wt PKR. Kind of test: PKR Mutant Assay, dose response (AC50), wild type PKR enzyme. The class given is biochemical. The following applies: wild type PKR enzyme. The method, then:
(§1) • PKR or PKR mutant enzyme solution was diluted in assay buffer. • 2 μL of test compound was added into wells first, and then 180 μL reaction mix was added. • Reactions mixture with test compound was assembled except for ADP, and plates were stored for 60 minutes at room temperature. • 20 uL ADP was added to start reaction at room temperature and reaction progress was measured as changes in absorbance at 340 nm wavelength at room temperature.
(§2) Test Compound Preparation: • Test compound stock was made at 100× concentration in 100% DMSO (10 mM) • 1 to 3 dilutions were made for 11 points (i.e. 50 μl of first concentration added to 100 μl 100% DMSO to yield 3.33 mM, 50 μl of this added to 100 μl DMSO to yield 1.11 mM, and so forth) • 1 to 100 dilution into assay (2 μl in 200 μl) yielded starting concentration of 100 μM, decreasing 3 fold for 11 points.

A further test has as its target PKR R532W (Homo sapiens, UniProt P30613, R532W). Kind of test: PKR Mutant Assay, dose response (AC50), PKR R532W. In kind it is biochemical. As to conditions: PKR R532W mutant enzyme. How it is done: as §1, §2
The next test addresses PKR R510Q (Homo sapiens, UniProt P30613, R510Q). Kind of test: PKR Mutant Assay, dose response (AC50), PKR R510Q. In kind it is biochemical. As to conditions: PKR R510Q mutant enzyme. How it is done:
as §1, §2

Molecules are shown by their SMILES. Where only a bound is given, the exact number is not on record here.

T1 sequence (P30613 whole entry): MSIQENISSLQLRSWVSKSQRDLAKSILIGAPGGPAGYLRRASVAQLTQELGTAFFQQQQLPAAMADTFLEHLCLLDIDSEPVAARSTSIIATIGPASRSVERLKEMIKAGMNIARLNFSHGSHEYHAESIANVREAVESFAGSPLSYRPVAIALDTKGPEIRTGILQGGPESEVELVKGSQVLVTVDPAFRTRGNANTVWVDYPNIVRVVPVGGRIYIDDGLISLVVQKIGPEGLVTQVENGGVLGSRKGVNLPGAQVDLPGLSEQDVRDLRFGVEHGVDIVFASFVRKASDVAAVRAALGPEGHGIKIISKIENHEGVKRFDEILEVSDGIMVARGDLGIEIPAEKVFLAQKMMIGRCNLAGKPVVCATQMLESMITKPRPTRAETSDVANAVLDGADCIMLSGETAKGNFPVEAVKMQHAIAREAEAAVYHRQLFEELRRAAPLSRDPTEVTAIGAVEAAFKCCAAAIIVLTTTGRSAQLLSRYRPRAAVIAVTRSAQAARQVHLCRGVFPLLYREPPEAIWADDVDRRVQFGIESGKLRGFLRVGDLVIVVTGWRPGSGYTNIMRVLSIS
Sequence of PKR R532W (P30613 whole entry R532W): as the sequence (P30613 whole entry) above, with R532W counted along it
Sequence of PKR R510Q (P30613 whole entry R510Q): as the sequence (P30613 whole entry) above, with R510Q counted along it

`Cc1nscc1CC1(O)CCN(C(=O)c2ccc(NS(=O)(=O)c3cccc4ncsc34)cc2)CC1` [Compound 519, N-(4-(4-hydroxy-4-((3-methylisothiazol-4-yl)methyl)piperidine-1-carbonyl)phenyl)benzo[d]thiazole-7-sulfonamide]: the AC50 at wt PKR [1], at wt PKR [2], at PKR R532W and at PKR R510Q was under 100 nM in each case.

With `O=C(c1ccc(NS(=O)(=O)c2cccc3scnc23)cc1)N1CCC(O)(Cc2cn[nH]c2)CC1` [Compound 498, N-(4-(4-((1H-pyrazol-4-yl)methyl)-4-hydroxypiperidine-1-carbonyl)phenyl)benzo[d]thiazole-4-sulfonamide], the AC50 on wt PKR [1] was 101 to 1000 nM; at wt PKR [2], under 100 nM; at PKR R532W, under 100 nM; at PKR R510Q, 101 to 1000 nM.

Take `CC(F)(F)CCC1(O)CCN(C(=O)c2ccc(NS(=O)(=O)c3cccc4nccnc34)cc2F)CC1` [Compound 478, N-(4-(4-(3,3-difluorobutyl)-4-hydroxypiperidine-1-carbonyl)-3-fluorophenyl)quinoxaline-5-sulfonamide]: the concentration at half-maximal activity (AC50) at wt PKR [1], at wt PKR [2], on PKR R532W and at PKR R510Q was 101 to 1000 nM throughout.

Consider `Cc1cc(CC2(O)CCN(C(=O)c3ccc(NS(=O)(=O)c4cccc5nccnc45)cc3)CC2)sn1` [Compound 511, N-(4-(4-hydroxy-4-((3-methylisothiazol-5-yl)methyl)piperidine-1-carbonyl)phenyl)quinoxaline-5-sulfonamide], for which the AC50 at wt PKR [1] was 101 to 1000 nM; at wt PKR [2] it was under 100 nM; at PKR R532W, under 100 nM; at PKR R510Q, 101 to 1000 nM.

On to `O=C(c1ccc(NS(=O)(=O)c2cccc3nccnc23)cc1)N1CCC(O)(C2CCC(O)CC2)CC1` (stereo not shown) [Compound 502, N-(4-(4-hydroxy-4-(4-hydroxycyclohexyl)piperidine-1-carbonyl)phenyl)quinoxaline-5-sulfonamide], for which the AC50 on wt PKR [1], at wt PKR [2], on PKR R532W and on PKR R510Q was 101 to 1000 nM each time.

On to `CC(F)(F)CCC1(O)CCN(C(=O)c2ccc(NS(=O)(=O)c3cccc4nccnc34)cc2C#N)CC1` [Compound 492], for which the AC50 on wt PKR [1], at wt PKR [2], at PKR R532W and on PKR R510Q was 101 to 1000 nM in each case.

On to `Nc1cnc2c(S(=O)(=O)Nc3ccc(C(=O)N4CCC(O)(CCCC(F)(F)F)CC4)cc3)cccc2n1` [Compound 482, 2-amino-N-(4-(4-hydroxy-4-(4,4,4-trifluorobutyl)piperidine-1-carbonyl)phenyl)quinoxaline-5-sulfonamide], for which the half-maximal activity concentration (AC50) on wt PKR [1], on wt PKR [2], at PKR R532W and on PKR R510Q was under 100 nM each time.

On to `CC(C)CC1(OC(=O)OCOP(=O)(O)O)CCN(C(=O)c2ccc(NS(=O)(=O)c3cccc4scnc34)cc2)CC1` [Compound 526], for which the AC50 on wt PKR [1] is under 100 nM; on wt PKR [2] it was 101 to 1000 nM; on PKR R532W it was 101 to 1000 nM; on PKR R510Q it was 101 to 1000 nM.

For `CC(C)CC1(OC(=O)OCOP(=O)(O)O)CCN(C(=O)c2ccc(NS(=O)(=O)c3cccc4nccnc34)cc2)CC1` [Compound 527, 4-isobutyl-1-(4-(quinoxaline-5-sulfonamido)benzoyl)piperidin-4-yl phosphonooxymethyl carbonate], the AC50 at wt PKR [1] was under 100 nM; at wt PKR [2] it was 101 to 1000 nM; at PKR R532W it was 101 to 1000 nM; at PKR R510Q it was 101 to 1000 nM.

For `Cc1cc(C2(O)CCN(C(=O)c3ccc(NS(=O)(=O)c4cccc5nccnc45)cc3)CC2)sn1` [Compound 518, N-(4-(4-hydroxy-4-(3-methylisothiazol-5-yl)piperidine-1-carbonyl)phenyl)quinoxaline-5-sulfonamide], the concentration at half-maximal activity (AC50) at wt PKR [1] was 101 to 1000 nM; at wt PKR [2], under 100 nM; at PKR R532W it was under 100 nM; at PKR R510Q, 101 to 1000 nM.

As to `Cn1nccc1CC1(O)CCN(C(=O)c2ccc(NS(=O)(=O)c3cccc4nccnc34)cc2)CC1` [Compound 508, N-(4-(4-hydroxy-4-((1-methyl-1H-pyrazol-5-yl)methyl)piperidine-1-carbonyl)phenyl)quinoxaline-5-sulfonamide], the half-maximal activity concentration (AC50) at wt PKR [1] was under 100 nM; at wt PKR [2] it was under 100 nM; on PKR R532W, under 100 nM; at PKR R510Q, 101 to 1000 nM.

Regarding `CC(F)(F)CCC1(O)CCN(C(=O)c2ccc(NS(=O)(=O)c3cccc4scnc34)cc2F)CC1` [Compound 469, N-(4-(4-(3,3-difluorobutyl)-4-hydroxypiperidine-1-carbonyl)-3-fluorophenyl)benzo[d]thiazole-4-sulfonamide], the half-maximal activity concentration (AC50) at wt PKR [1] lay within 1010 to 10000 nM; at wt PKR [2], 101 to 1000 nM; on PKR R532W, 101 to 1000 nM; on PKR R510Q it was 101 to 1000 nM.

On to `O=C(c1ccc(NS(=O)(=O)c2cccc3scnc23)cc1)N1CCC(O)(C2CCC(O)CC2)CC1` (stereo not shown) [Compound 501, N-(4-(4-hydroxy-4-(4-hydroxycyclohexyl)piperidine-1-carbonyl)phenyl)benzo[d]thiazole-4-sulfonamide], for which the AC50 at wt PKR [1], on wt PKR [2], at PKR R532W and on PKR R510Q was 101 to 1000 nM throughout.

As for `CC(F)(F)CCC1(O)CCN(C(=O)c2ccc(NS(=O)(=O)c3cc(F)cc4sc(N)nc34)cc2F)CC1` [Compound 483, 2-amino-N-(4-(4-(3,3-difluorobutyl)-4-hydroxypiperidine-1-carbonyl)-3-fluorophenyl)-6-fluorobenzo[d]thiazole-4-sulfonamide], the AC50 on wt PKR [1] was 101 to 1000 nM; at wt PKR [2], under 100 nM; on PKR R532W it was 101 to 1000 nM; on PKR R510Q it was 101 to 1000 nM.

Regarding `Cc1nscc1CC1(O)CCN(C(=O)c2ccc(NS(=O)(=O)c3cccc4nccnc34)cc2)CC1` [Compound 497, N-(4-(4-hydroxy-4-((3-methylisothiazol-4-yl)methyl)piperidine-1-carbonyl)phenyl)quinoxaline-5-sulfonamide], the AC50 on wt PKR [1], at wt PKR [2], on PKR R532W and at PKR R510Q was under 100 nM throughout.

Take `Cc1noc(C)c1CC1(O)CCN(C(=O)c2ccc(NS(=O)(=O)c3cccc4scnc34)cc2)CC1` [Compound 520, N-(4-(4-((3,5-dimethylisoxazol-4-yl)methyl)-4-hydroxypiperidine-1-carbonyl)phenyl)benzo[d]thiazole-4-sulfonamide]: the half-maximal activity concentration (AC50) at wt PKR [1] was 101 to 1000 nM; at wt PKR [2], under 100 nM; on PKR R532W it was under 100 nM; at PKR R510Q, 101 to 1000 nM.

`Cc1n[nH]c(C)c1CC1(O)CCN(C(=O)c2ccc(NS(=O)(=O)c3cccc4scnc34)cc2)CC1` [Compound 514]: the AC50 is 101 to 1000 nM on wt PKR [1], under 100 nM at wt PKR [2], under 100 nM at PKR R532W and 101 to 1000 nM on PKR R510Q.

As for `CC(C)CC1(O)CCN(C(=O)c2ccc(NS(=O)(=O)c3cncc4cccnc34)cc2)CC1` [Compound 513, N-(4-(4-hydroxy-4-isobutylpiperidine-1-carbonyl)phenyl)-1,6-naphthyridine-8-sulfonamide], the concentration at half-maximal activity (AC50) is under 100 nM at wt PKR [1], under 100 nM on wt PKR [2], under 100 nM on PKR R532W and 101 to 1000 nM at PKR R510Q.

Regarding `Cc1noc(C)c1CC1(O)CCN(C(=O)c2ccc(NS(=O)(=O)c3cccc4nccnc34)cc2)CC1` [Compound 521, N-(4-(4-((3,5-dimethylisoxazol-4-yl)methyl)-4-hydroxypiperidine-1-carbonyl)phenyl)quinoxaline-5-sulfonamide], the AC50 on wt PKR [1] is under 100 nM; at wt PKR [2] it was under 100 nM; on PKR R532W, under 100 nM; on PKR R510Q, 101 to 1000 nM.

Turning to `O=C(c1ccc(NS(=O)(=O)c2cccc3scnc23)cc1)N1CCC(O)(c2scnc2Cl)CC1` [Compound 480, N-(4-(4-(4-chlorothiazol-5-yl)-4-hydroxypiperidine-1-carbonyl)phenyl)benzo[d]thiazole-4-sulfonamide], the AC50 on wt PKR [1] was 101 to 1000 nM; on wt PKR [2], under 100 nM; on PKR R532W, under 100 nM; at PKR R510Q, 101 to 1000 nM.

Consider `O=C(c1ccc(NS(=O)(=O)c2cccc3nccnc23)cc1)N1CCC(O)(Cc2cn[nH]c2)CC1` [Compound 499, N-(4-(4-((1H-pyrazol-4-yl)methyl)-4-hydroxypiperidine-1-carbonyl)phenyl)quinoxaline-5-sulfonamide], for which the AC50 on wt PKR [1] was 101 to 1000 nM; at wt PKR [2] it was under 100 nM; on PKR R532W, under 100 nM; at PKR R510Q, 101 to 1000 nM.

For the compound `O=C(c1ccc(NS(=O)(=O)c2cccc3scnc23)cc1)N1CCC(O)(c2sncc2Cl)CC1` [Compound 522, N-(4-(4-(4-chloroisothiazol-5-yl)-4-hydroxypiperidine-1-carbonyl)phenyl)benzo[d]thiazole-4-sulfonamide], the AC50 on wt PKR [1] is under 100 nM; at wt PKR [2], under 100 nM; on PKR R532W, under 100 nM; on PKR R510Q it was 101 to 1000 nM.

These data come from patent US20160046579A1, “THERAPEUTIC COMPOUNDS AND COMPOSITIONS” (AGIOS PHARMACEUTICALS, INC., priority 2013, published 2016).
